Reference: patent publication US6265423A, “Aromatic polycyclic retinoid-type derivatives, method for preparing same, and use thereof for making pharmaceutical and cosmetic compositions” (priority 1996, dated 2001)
Entries after “also recorded” stand apart in the source; their conditions may differ.

Columns and labels:
Gal4-RARγ = assay: Transactivation, chimerical receptor Gal4-RARγ (transitory transfection of HeLa); format: cell-based; conditions: 100% = TTNPB 10^-8 M
RARβ-ERcassette = assay: Transactivation, chimerical receptor RARβ-ERcassette (HeLa); format: cell-based; conditions: TTNPB 10^-8 M = 100
Source text: (§1) The HeLa cells are co-transfected by a plasmid which codes for a retinoic receptor in which the C domain of bonding to the DNA is substituted by that of the receptor to RE oestrogens, and a plasmid which places the expression of the luciferase under the control of an ERE (Element of Response to Oestrogens). The expressed chimerical receptors are designated as RARα-ERcassette, RARβ-ERcassette, RARγ-ERcassette and RXRα-ERcassette. The A, B, D, E and F regions of the natural receptor are preserved as well as the transcriptional co-operation between the activation domains AF-1 and AF-2. These transitory transfection experiments follow the method of co-precipitation to calcium phosphate. The HeLa cells are co-transfected by […] of plasmid coding for the chimerical receptor, […] of reporter plasmid and […] of expression vector CMV-β-galactosidase used as an internal control of transfection. 24 hours after the transfection, the cells are incubated for 16 hours with the different effectors.
(§2) In this type of chimerical receptor, the C domain of bonding to the DNA of RAR is substituted by that of the receptor to the RE oestrogens. The protein obtained is close to the natural RAR receptor and preserves the transcriptional properties of the AF-1 and AF-2 domains. It modulates the transcription by means of an ERE. This RAR-ERcassette model allows one to observe a transcriptional response to a more physiological ligand.

[1] = test system: human mammary tumoral lineage T-47D; assay: Clonogenic test (soft agar), growth of cellular colonies; format: cell-based; conditions: T-47D, soft agar
Source text: The human tumour stem cells are the clonogenic cells which are the origin of the neoplasic cells which constitute a given tumour. These tumour stem cells are responsible for the recidivism process observable after surgical resection of the primary tumours and are also responsible for the formation of metastases. […] At the level of a tumour or of a tumoral cellular lineage, these clonogenic stem cells distinguish themselves from other clonogenic cells of the tumour or of the neoplasic cellular lineage being considered, by the fact that they preserve their ability to proliferate in the absence of any solid support.
This technique is suitable for the culturing in vitro of most of the tumours and tumoral cellular lineages of various histological types. In the context of this test, the neoplastic cells are cultured on a semi-solid culture medium "soft agar" made up of a mixture of agar and agarose. On this selective support, only tumoral stem cells survive and proliferate. […] The morphological characteristics and the growth of the cellular colonies are also a function of the histological type of the tumours being considered.
These culture conditions are also called "anchorage-independent" conditions.
The base medium "MEM 25 MM HEPES" (Minimum Essential Medium, Life Technologies, Belgium) contains Eagle salts but no L-glutamine. This medium is well suited to the growth of a range of varied diploid cells or primary mammal cells. To this medium is then added:
The tumoral cells are maintained in culture in 25 cm^2 falcon dishes (Life Technologies, Belgium). They are then trypsinised and individualised. Their rate of viability is determined by coloration with trypan blue (Sigma, Belgium). It must be greater than 90%. In the case where this condition is kept to, a cellular suspension at the desired concentration is prepared in a solution of agar at 0. 3%. The cells are then seeded between two layers of agar (Sigma, Belgium) and in 35 mm Petri dishes (Life Technologies, Belgium). The base layer is made up of a 0.5% solution of agar and the top layer is made up of a 0.3% solution of agar. The cupules are then positioned and held in an incubator at 37° C. and 5% of CO2. […] After treatment, the cupules are kept in the incubator for 21 days. It is advisable to examine, during the course of the experiment, the appearance and the increase of the cellular colonies. If after 10 days, no colony appears or is developing, the experiment must be repeated. In the contrary case, on the 21st day, 100 μl of an MTT solution (3-(4,5-dimethylthiazol-2-yl)-2,5 diphenyl tetrazolium bromide; Sigma, Belgium) dissolved in the RPMI culture medium (Roswell park Memorial Institute, Life Technologies, Belgium), at the concentration of 1 mg/ml are deposited on the top layer of the group of cupules. The cells are kept in contact with this solution for a minimum of 3 hours at 37° C.
Using an inverted microscope at low magnification, the number of clones whose surface area is greater thar. 100 μm^2 is determined for the group of cupules representing all the different experimental conditions. Then, for each of these experimental conditions, the mean number of cellular colonies±the standard error on the mean (ESM) is calculated.
The mean number of cellular colonies determined for each experimental condition is expressed as a percentage in relation to the control condition made equal to 100%.

Gal4-RARβ = assay: Transactivation, chimerical receptor Gal4-RARβ (transitory transfection of HeLa); format: cell-based; conditions: 100% = TTNPB 10^-8 M
[2] = test system: RARE, endogenic RAR and RXR receptors, HRL+N lineage; assay: HRL+N transactivation (RARE-luciferase, stably transfected HeLa); format: cell-based
Method: (§3) MCF-7 cells and HeLa are cultivated in DMFM with phenol red to which 5% foetal calf serum is added. The T47-D cells are cultivated in RPMI to which 10% foetal calf serum is added. The experimental tests are carried out in DMEM without phenol red to which foetal calf serum treated with dextran carbon is added at 3%. […] The experiments using the different retinoids are carried out sheltered from the light so as to avoid any isomerisation.
(§4) Certain properties of the retinoids have been determined using more developed cellular models. These models consist of cellular lineages transfected in a stable fashion by recombinant plasmids which place the expression of the gene of the luciferase under the control of different nuclear response elements. […] The tests carried out in duplicate are described below for each of these models.
The cellular lineages HRLN and HRL+N allow one to study the activation of an RARE by endogenic receptors using ligands at physiological concentrations. These lineages derive from HeLa cells transfected in a stable fashion by a reporter gene which places the expression of the gene of the luciferase under the control of a nuclear response element RARE (RARE3 -tk-Luc). The HeLa cells express all the known receptors of the retinoic acid (RARα,β,γ and RXRα,β,γ) with a predominance of RARα and RXRα. The response element RARE used for the HRLN cells corresponds to the sequence of the natural gene of the RARβ receptor (GGTTCAnnnnnAGTTCA). The HRL+N cells comprise the sequence GAGTGAnnnnnCGGTGA.
The HRL+N lineage allows one to visualise a co-activation of the RAR and RXR receptors at the level of the RAR-RXR hetero-dimer.

[3] = test system: RAR-ERcassettes (RARα, RARβ, RARγ); assay: Chimerical receptors RAR-ERcassettes, overall profile; format: cell-based
Source text: as §1, §2

T-47D cells = assay: Effect on oestrogen-induced proliferation of T-47D cells; format: cell-based, human; conditions: estradiol 10^-9 M
Method: as §3
So as to test the anti-proliferation effect of the retinoids, growth experiments under oestrogenic conditions were carried out on cells MCF-7 and T-47D. These are the human oestrogen-dependent mammary cancer cells which express the receptor to RE oestrogens. The effect of the molecules is evaluated after 7 days of culture in oestrogenic conditions (estradiol 10^-9 M) by dosing the cellular DNA. The cells are distributed in 24 well plates at a density of 2×10^4 cells per well. The tests with the different retinoids are carried out in triplicate and the culture medium is changed after 4 days of growth.

[4] = test system: A549 human pulmonary cancer cells; assay: MTT test, proliferation of A549; format: cell-based; conditions: MTT test
MCF-7 cells = assay: Effect on oestrogen-induced proliferation of MCF-7 cells; format: cell-based, human; conditions: estradiol 10^-9 M
Method: MCF-7 cells and HeLa are cultivated in DMFM with phenol red to which 5% foetal calf serum is added. […] The experimental tests are carried out in DMEM without phenol red to which foetal calf serum treated with dextran carbon is added at 3%. […] The experiments using the different retinoids are carried out sheltered from the light so as to avoid any isomerisation.

[5] = test system: AP-1, MTLN lineage (MCF-7); assay: Anti-AP-1 effect, MTLN lineage activated by TPA; format: cell-based, human; conditions: TPA-activated MTLN cells
Method: as §4
The anti-factor AP-1 transrepressor effect of retinoids is determined using the MTLN lineage, coming from MCF-7 cells transfected in a stable fashion by a vector p(TRE)3 -tk-Luc which places the expression of the gene of luciferase under the control of […]. TPA activates the AP-1 complex formed from proteins of the family of nuclear proto-oncogenes (c-Jun and c-Fos). […] The experiments are made with the MTLN cells activated by 10^-7 M TPA.
The effect of the compounds on the MTLN cells activated by 10^-7 M TPA is expressed as a percentage. […] The inhibitive properties of the products are calculated after deduction of the base activity of the cells. The percentages reported correspond to a range of inhibitions determined from several experiments.

Compound: C=C(c1ccc(C(=O)O)cc1)c1cc2c(cc1C)C(C)(C)CCC2(C)C [LGD1069, reference compound]
- GAL4-RAR RARγ transactivation (Gal4-RARγ; 10^-6 M): 29%
- GAL4-RAR RARγ transactivation (Gal4-RARγ; 10^-7 M): 8%
- GAL4-RAR RARγ transactivation (Gal4-RARγ; 10^-8 M): 1%
- RAR-ERcassette RARβ transactivation (RARβ-ERcassette; 10^-6 M): 237%
- RAR-ERcassette RARβ transactivation (RARβ-ERcassette; 10^-7 M): 194%
- effect on growth of cellular colonies (in words) [1]: strongly and significantly inhibits the growth of cellular colonies of the T-47D lineage
- GAL4-RAR RARβ transactivation (Gal4-RARβ; 10^-7 M): 5%
- GAL4-RAR RARβ transactivation (Gal4-RARβ; 10^-8 M): 1%
- HRL+N transactivation (in words) [2]: induce a stronger transactivation with the HRL+N cells; also recorded: behaves as a panagonistic molecule
- RAR-ERcassette profile (in words) [3]: transcriptional power appears higher notably through the RARβ-ERcassette; also recorded: permits a co-activation of RAR and RXR, bringing about an over-activation of the hetero-dimer in comparison with the specific RAR activation of TTNPB
- effect on oestrogen-induced growth, T-47D (in words) (T-47D cells): exerts no effect whatsoever on the growth of MCF-7 and T-47D cells in oestrogenic conditions
- effect on cellular increase, A549 (in words) [4]: induces a stimulation of the proliferation of the A549 cells at 10^-6 M and 10^-8 M
- effect on oestrogen-induced growth, MCF-7 (in words) (MCF-7 cells): exerts no effect whatsoever on the growth of MCF-7 and T-47D cells in oestrogenic conditions
- anti-AP-1 effect (in words) [5]: causes an inhibition of the AP-1 route; also recorded: the most effective compound tested in this model
